Experimental data from patent US8895474B2, “Herbicidally active cyclopentanediones and derivatives thereof, and their use in controlling weeds” (Syngenta Limited, priority 2009, dated 2014).

Experiments:
Format in all cases: in vivo
Settings in all cases: 312 h, rate 250 g/ha, evaluated after 13 days, 100=total damage to plant, 0=no damage to plant
Lolium perenne (LOLPE) [1] = assay: Pre-emergence herbicidal activity, glasshouse pot test
Procedure: (§1) Seeds of a variety of test species were sown in standard soil in pots. After cultivation for one day (pre-emergence) or after 8 days cultivation (post-emergence) under controlled conditions in a glasshouse (at 24/16° C., day/night; 14 hours light; 65% humidity), the plants were sprayed with an aqueous spray solution derived from the formulation of the technical active ingredient in acetone/water (50:50) solution containing 0.5% Tween 20 (polyoxyethelyene sorbitan monolaurate, CAS RN 9005-64-5). The test plants were then grown in a glasshouse under controlled conditions in a glasshouse (at 24/16° C., day/night; 14 hours light; 65% humidity) and watered twice daily. After 13 days for pre and post-emergence, the test was evaluated (100=total damage to plant; 0=no damage to plant). Test Plants: Lolium perenne (LOLPE), Alopecurus myosuroides (ALOMY), Echinochloa crus-galli (ECHCG), and Avena fatua (AVEFA). Pre-Emergence Activity

[2] = test system: Alopecurus myosuroides (ALOMY); assay: as above
Procedure: as §1

[3] = test system: Echinochloa crus-galli (ECHCG); assay: as above
Procedure: as §1

Avena fatua (AVEFA) [4] = assay: as above
Procedure: as §1

Lolium perenne (LOLPE) [5] = assay: Post-emergence herbicidal activity, glasshouse pot test
Procedure: as §1, with “Post-Emergence” for “Pre-Emergence”

[6] = test system: Alopecurus myosuroides (ALOMY); assay: as above
Procedure: as §1, with “Post-Emergence” for “Pre-Emergence”

[7] = test system: Echinochloa crus-galli (ECHCG); assay: as above
Procedure: as §1, with “Post-Emergence” for “Pre-Emergence”

Avena fatua (AVEFA) [8] = assay: as above
Procedure: as §1, with “Post-Emergence” for “Pre-Emergence”

Compound | pest or weed control at 250 g/ha (Lolium perenne (LOLPE) [1]) [%] | pest or weed control at 250 g/ha [2] [%] | pest or weed control at 250 g/ha [3] [%] | pest or weed control at 250 g/ha (Avena fatua (AVEFA) [4]) [%] | pest or weed control at 250 g/ha (Lolium perenne (LOLPE) [5]) [%] | pest or weed control at 250 g/ha [6] [%] | pest or weed control at 250 g/ha [7] [%] | pest or weed control at 250 g/ha (Avena fatua (AVEFA) [8]) [%]
CCc1ccc(Oc2cnc3cc(Cl)ccc3n2)cc1C1=C(O)[C@H]2[C@H]3CC[C@H](C3)[C@H]2C1=O [Compound A-10, meso-(3aS,4S,7R,7aR)-2-[5-(6-chloroquinoxalin-2-yloxy)-2-ethylphenyl]hexahydro-4,7-methanoindene-1,3-dione] | 30 | 40 | 60 | 20 | 90 | 90 | 90 | 100
CCc1ccc(Oc2ccc3cc(Cl)ccc3n2)cc1C1=C(O)CCC1=O [Compound A-43] | 50 | 40 | 60 | 10 | 30 | 60 | 100 | 30
CCc1ccc(Oc2ccc(Cl)cc2Cl)cc1C1=C(O)C2C(C1=O)[C@H]1CC[C@@H]2CC1 (stereo partly shown) [Compound A-29] | 0 | 0 | 50 | 0 | 0 | 60 | 100 | 0
CCc1ccc(Oc2cnc3ccccc3n2)cc1C1=C(O)CCC1=O [Compound A-67] | 100 | 60 | 100 | 40 | 80 | 70 | 100 | 20
CCc1ccc(Oc2ccc(Cl)cc2Cl)cc1C1=C(O)[C@H]2[C@H]3CC[C@H](C3)[C@H]2C1=O [Compound A-21] | 30 | 20 | 40 | 0 | 20 | 40 | 70 | 0
CCc1ccc(Oc2ccc(Cl)cc2Cl)cc1C1=C(O)[C@H]2[C@@H](C1=O)[C@@H]1CC[C@H]2O1 [Compound A-44] | 90 | 80 | 80 | 80 | 90 | 80 | 80 | 80
CCc1ccc(Oc2cnc3ccc(Br)cc3n2)cc1C1=C(O)CCC1=O [Compound A-79] | 70 | 40 | 90 | 20 | 20 | 0 | 50 | 0
CCc1ccc(Oc2ccc(C(F)(F)F)cc2Br)cc1C1=C(O)CCC1=O [Compound A-80] | 50 | 0 | 80 | 10 | 30 | 40 | 80 | 50
CCc1ccc(Oc2ccc(C(F)(F)F)cn2)cc1C1=C(O)C2C(C1=O)[C@H]1CC[C@@H]2CC1 (stereo partly shown) [Compound A-87] | 90 | 80 | 100 | 30 | 90 | 90 | 100 | 100
CCc1ccc(Oc2cccc(Br)c2)cc1C1=C(O)[C@H]2[C@@H](C1=O)[C@@H]1CC[C@H]2O1 [Compound A-47] | 70 | 60 | 90 | 30 | 70 | 60 | 90 | 30
CCc1ccc(Oc2ccc(Br)cc2)cc1C1=C(O)[C@H]2[C@H]3CC[C@H](C3)[C@H]2C1=O [Compound A-22] | 80 | 40 | 90 | 30 | 40 | 50 | 100 | 80
CCc1ccc(Oc2ccc(F)cc2)cc1C1=C(O)[C@H]2[C@H]3CC[C@H](C3)[C@H]2C1=O [Compound A-23] | 30 | 0 | 80 | 0 | 20 | 50 | 60 | 0
CCc1ccc(Oc2ccc(Cl)cc2)cc1C1=C(O)C2C(C1=O)[C@H]1CC[C@@H]2CC1 (stereo partly shown) [Compound A-31] | 50 | 20 | 90 | 0 | 40 | 100 | 100 | 80
CCc1ccc(Oc2ccc(C(F)(F)F)c(C#N)c2)cc1C1=C(O)CCC1=O [Compound A-70] | 20 | 0 | 60 | 10 | 10 | 0 | 60 | 0
CCc1ccc(Oc2nc3ccc(OC)cc3s2)cc1C1=C(O)CCC1=O [Compound A-75] | 80 | 30 | 100 | 20 | 20 | 10 | 40 | 0
CCc1ccc(Oc2ncc(Cl)cc2F)cc1C1=C(O)[C@H]2[C@H]3CC[C@H](C3)[C@H]2C1=O [Compound A-11] | 80 | 30 | 100 | 50 | 70 | 80 | 100 | 90
CCc1ccc(Oc2ccc(Br)cc2Cl)cc1C1=C(O)[C@H]2[C@H]3CC[C@H](C3)[C@H]2C1=O [Compound A-20] | 50 | 50 | 60 | 10 | 20 | 30 | 70 | 0
CCc1ccc(Oc2ccc(Cl)cc2F)cc1C1=C(O)CCC1=O [Compound A-40] | 10 | 0 | 40 | 0 | 10 | 10 | 30 | 10
CCc1ccc(Oc2ccc(Cl)c(F)c2)cc1C1=C(O)[C@H]2[C@H]3CC[C@H](C3)[C@H]2C1=O [Compound A-26] | 20 | 0 | 80 | 0 | 30 | 60 | 80 | 80
O=C1CCC(O)=C1c1cc(Oc2ccc(Cl)cc2)ccc1C1CC1 [Compound A-54, 2-[5-(4-chlorophenoxy)-2-cyclopropylphenyl]cyclopentane-1,3-dione] | 0 | 0 | 0 | 0 | 0 | 0 | 80 | 10
